Data published in PMC11982498 (Redox Biology, 2025).

Tests used:
[1] = test system: bio-ILPR (DNA, i motif) TGTCCCCACACCCCTGTCCCCACACCCCTGT; assay: SPR; conditions: K+ 100 mM; 20 mM MES, pH 5.5, 25 °C
[2] = test system: BAX gene transcription in brain of APP/PS1 mice; assay: Real-time RT-PCR of mice brain, BAX; type: in vivo
Experimental: Five months old male APP/PS1 mice, weighing 25–33 g, were purchased from Guangdong Medical Laboratory Animal Center and housed in the Laboratory Animal Center of Sun Yat-sen University (Guangzhou, China) for experimentation. […] The mice were housed in a specific pathogen-free environment with a controlled temperature of 22 ± 1 °C and a 12-h dark/light cycle. The mice were fed with a standard diet, and 30 mice were randomly divided into 6 groups (N = 5). […] Behavioral experiments were then conducted, and tissue specimens were collected for biochemical analysis.
^a -∆∆Ct = -[(Ct value of genes in treated sample - Ct value of genes in control) - (Ct value of β-actin in treated sample - Ct value of β-actin in control)]. ^b F: The relative expression fold.
Following sample homogenization, chloroform was added, and the solution was allowed to have phase separation into an upper aqueous layer (containing RNA), an interphase, and a lower organic layer (containing DNA and proteins). RNA was precipitated from the aqueous phase using isopropanol, while DNA was precipitated from the aqueous-organic interphase using ethanol.
Quantitative real-time polymerase chain reaction (qRT-PCR) was performed using the 2× RealStar SYBR Mixture (GenStar, Cat# A301-10, Guangzhou, China) on a LightCycler 480 II real-time PCR system (Roche, USA). Data were analyzed using the 2^−ΔΔCt method. Actin served as the internal control, and relative mRNA levels were normalized accordingly.

[3] = test system: Aβ1-42 aggregation in SH-SY5Y cells; assay: Fluorescence imaging of intracellular Aβ1-42 accumulation (ThT); type: cell-based; conditions: 25 μM Aβ1-42; 25 μM B14, 48 h
Experimental: SH-SY5Y cells were seeded in a 96-well plate (6000 cells/well) in 100 μL medium. After the cells adhered to the wall, SH-SY5Y cells were incubated with serum-free medium containing 25 μM Aβ1-42 for 6 h to allow for the uptake of Aβ1-42 into the cells. Then solutions of B14 at different concentrations were added to the cells, with the mixtures incubated for 48 h. After being washed for three times with pre-cooled PBS, the cells were fixed with freshly prepared 4 % paraformaldehyde (Servicebio, Guangzhou, China) for 10 min at room temperature. After being washed for three times with pre-cooled PBS, the cells were incubated with ThT solution for 20 min at 25 °C in the dark. After washing for three times with pre-cooled PBS, the cells were stained with 10 μg/mL Hoechst 33342 solution (Aladdin, Shanghai, China) for 20 min at 25 °C in the dark. After washing for three times with pre-cooled PBS, the stained cells were observed and photographed with a FV3000 (Olympus, Japan) fluorescence microscope.

## O=C(CCN1CCOCC1)Nc1ccc2c(c1)c(=O)c1cc(NC(=O)CCN3CCOCC3)ccc1n2-c1ccc2occc2c1 [Compound B14]
[1]
  KD: > 50 µM
[2]; 10 mg/kg
  -∆∆Ct, BAX: -0.16
  F = 2^-∆∆Ct (relative expression fold), BAX: 1.11
[2]; 20 mg/kg
  -∆∆Ct, BAX: 0.08
  F = 2^-∆∆Ct (relative expression fold), BAX: 0.94
[2]; 40 mg/kg
  -∆∆Ct, BAX: 0.21
  F = 2^-∆∆Ct (relative expression fold), BAX: 0.86
[3]
  ThT fluorescence of SH-SY5Y cells (intracellular Aβ1-42 aggregation): almost completely disappeared
